Source: paper PMC13315578

Tests used:
Min Elp3 [1] = molecular target: T1, Min Elp3 (Methanocaldococcus infernus, UniProt D5VRB9, M156W); test: microscale thermophoresis, hill fit; type: binding; settings: anaerobic, pH 7.5, room temperature; His-tagged protein labelled with iFluor 647-Tris NTA; no tRNA
T1 construct: gene Metin_0452; E. coli codon-optimized gene, N-terminal 6xHis tag with TEV site (pET28a-tev), tag kept for MST; E. coli BL21(DE3) host with isc operon; anaerobically purified, [4Fe-4S] cluster chemically reconstituted

Min Elp3 [2] = molecular target: T2, Min Elp3 (Methanocaldococcus infernus, UniProt D5VRB9, Y304A); test: microscale thermophoresis, hill fit; type: binding; settings: anaerobic, pH 7.5, room temperature; His-tagged protein labelled with iFluor 647-Tris NTA; no tRNA
T2 construct: gene Metin_0452; E. coli codon-optimized gene, N-terminal 6xHis tag with TEV site (pET28a-tev), tag kept for MST; E. coli BL21(DE3) host with isc operon; anaerobically purified, [4Fe-4S] cluster chemically reconstituted

Min Elp3 [3] = molecular target: T3, Min Elp3 (Methanocaldococcus infernus, UniProt D5VRB9); test: microscale thermophoresis, hill fit; type: binding; settings: anaerobic, pH 7.5, room temperature; His-tagged protein labelled with iFluor 647-Tris NTA; no tRNA
T3 construct: gene Metin_0452; E. coli codon-optimized gene, N-terminal 6xHis tag with TEV site (pET28a-tev), tag kept for MST; E. coli BL21(DE3) host with isc operon; anaerobically purified, [4Fe-4S] cluster chemically reconstituted
T3 sequence (D5VRB9 1-534): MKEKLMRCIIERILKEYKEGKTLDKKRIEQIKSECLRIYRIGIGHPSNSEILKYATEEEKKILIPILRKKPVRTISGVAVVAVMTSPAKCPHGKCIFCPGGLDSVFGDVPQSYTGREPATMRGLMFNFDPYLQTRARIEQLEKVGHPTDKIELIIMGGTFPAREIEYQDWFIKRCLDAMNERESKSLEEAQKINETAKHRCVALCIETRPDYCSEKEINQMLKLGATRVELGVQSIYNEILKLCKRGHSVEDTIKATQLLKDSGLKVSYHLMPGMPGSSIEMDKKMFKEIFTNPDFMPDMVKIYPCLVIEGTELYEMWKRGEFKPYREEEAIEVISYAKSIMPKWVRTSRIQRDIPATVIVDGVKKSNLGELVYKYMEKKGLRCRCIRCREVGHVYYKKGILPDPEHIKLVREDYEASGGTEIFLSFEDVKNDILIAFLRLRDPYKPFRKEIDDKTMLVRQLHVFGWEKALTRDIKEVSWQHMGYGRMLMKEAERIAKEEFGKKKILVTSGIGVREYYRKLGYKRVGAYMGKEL

Min Elp3 [4] = molecular target: T4, Min Elp3 (Methanocaldococcus infernus, UniProt D5VRB9, E207A); test: microscale thermophoresis, hill fit; type: binding; settings: anaerobic, pH 7.5, room temperature; His-tagged protein labelled with iFluor 647-Tris NTA; no tRNA
T4 construct: gene Metin_0452; E. coli codon-optimized gene, N-terminal 6xHis tag with TEV site (pET28a-tev), tag kept for MST; E. coli BL21(DE3) host with isc operon; anaerobically purified, [4Fe-4S] cluster chemically reconstituted

Min Elp3 [5] = molecular target: T5, Min Elp3 (Methanocaldococcus infernus, UniProt D5VRB9, K302A); test: microscale thermophoresis, hill fit; type: binding; settings: anaerobic, pH 7.5, room temperature; His-tagged protein labelled with iFluor 647-Tris NTA; no tRNA
T5 construct: gene Metin_0452; E. coli codon-optimized gene, N-terminal 6xHis tag with TEV site (pET28a-tev), tag kept for MST; E. coli BL21(DE3) host with isc operon; anaerobically purified, [4Fe-4S] cluster chemically reconstituted

Min Elp3 WT = molecular target: T6, Min Elp3 WT (Methanocaldococcus infernus, UniProt D5VRB9 1-534); test: EMSA; EMSA: 250 nM tRNA, 0-20 uM Elp3, 100 mM HEPES pH 7.5, 750 mM NaCl, 25 mM DTT, 20 °C 30 min; 5% TBE gel at 4 °C; settings: protein: recombinant; tags: N-terminal 6xHis-TEV site (pET28a-tev); tRNA fold, annealed
T6 sequence: T3 sequence (D5VRB9 1-534)

T1 sequence (D5VRB9 whole entry M156W): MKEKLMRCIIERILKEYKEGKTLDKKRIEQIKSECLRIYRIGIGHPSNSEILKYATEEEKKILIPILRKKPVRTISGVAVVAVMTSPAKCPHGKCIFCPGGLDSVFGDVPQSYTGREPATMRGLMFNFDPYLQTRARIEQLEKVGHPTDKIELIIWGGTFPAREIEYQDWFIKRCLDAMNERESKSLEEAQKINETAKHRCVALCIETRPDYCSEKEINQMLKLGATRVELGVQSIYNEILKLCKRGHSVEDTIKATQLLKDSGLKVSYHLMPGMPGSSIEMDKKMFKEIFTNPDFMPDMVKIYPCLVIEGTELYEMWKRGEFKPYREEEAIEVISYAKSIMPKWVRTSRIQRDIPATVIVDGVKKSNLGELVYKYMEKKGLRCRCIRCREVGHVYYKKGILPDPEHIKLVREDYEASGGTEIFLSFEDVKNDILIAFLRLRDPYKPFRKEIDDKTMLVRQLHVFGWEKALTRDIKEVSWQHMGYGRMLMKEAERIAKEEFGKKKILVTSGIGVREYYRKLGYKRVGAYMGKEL
T5 sequence (D5VRB9 whole entry K302A): as the sequence (D5VRB9 whole entry M156W) above, with W156M, K302A counted along it
T4 sequence (D5VRB9 whole entry E207A): as the sequence (D5VRB9 whole entry M156W) above, with W156M, E207A counted along it
T2 sequence (D5VRB9 whole entry Y304A): as the sequence (D5VRB9 whole entry M156W) above, with W156M, Y304A counted along it

## C[S+](CC[C@H](N)C(=O)O)C[C@H]1O[C@@H](n2cnc3c(N)ncnc32)[C@H](O)[C@@H]1O (stereo partly drawn) [SAM]
Min Elp3 [1]
  KD: Elp3 M156W (light blue squares) binds cofactor SAM with comparable affinity to WT Elp3
Min Elp3 [2]
  KD: Y304A (cyan triangles) mutants bind cofactor SAM with comparable affinity to WT Elp3
Min Elp3 [3]
  KD: Elp3-SAM binding was measured by triplicate microscale thermophoresis (MST) assays
Min Elp3 [4]
  KD: E207A (dark blue triangles), K302A (light blue squares), and Y304A (cyan triangles) mutants bind cofactor SAM
Min Elp3 [5]
  KD: K302A (light blue squares), and Y304A (cyan triangles) mutants bind cofactor SAM

B1: tRNA ArgUCU (structured_RNA)
RNA: GGACCCGUAGCCUAGCCUGGAUAGGGCACCGGCCUUCUAAGCCGGGGGUCGGGGGUUCAAAUCCCCCCGGGUCCGCCA
Min Elp3 WT
  binding result: binds
